Test results taken from paper PMC9963121, “Development of Combretastatin A-4 Analogues as Potential Anticancer Agents with Improved Aqueous Solubility” (Molecules, 2023).
Counter-ions that a name gives are not always drawn.

Tests used:
[1] = system: MCF-10A normal breast cell; test: MTT cell growth inhibition assay, MCF-10A normal breast cells; type: cell-based; conditions: Homo sapiens, mean ± SD of three experiments, read-out: IC50 MCF-10A Normal Breast Epithelial Cells
Text: (§1) Initially, we designed and synthesised seven compounds—9a and 12a1–12a6—and evaluated the anticancer activity and aqueous solubility. We evaluated the cytotoxic effects of these stilbene nitrile analogues against a panel of four human cancer cell lines (HCT-116, BEL-7402, MCF-7 and AGS) and two human non-cancerous normal cell lines (L-02 and MCF-10A), using CA-4 as a control. The compounds were screened for aqueous solubility in 0.01 M PBS using a high throughput UV method. […] It is possible that the size of the nitrogen heterocycle had little effect on the activity of these compounds. […] The aqueous solubility of all the compounds 12a1–12a6 was higher than that of 9a, particularly that of 12a1 and 12a2 containing piperazine rings. […] Of the six compounds with improved aqueous solubility, 12a1 had the best activity.
(§2) All human cell lines were used in this study. AGS gastric cancer cell, BEL-7402 liver cancer cell, HCT-116 colorectal cancer cell, L-02 normal liver cell, MCF-7 breast cancer cell, and MCF-10A normal breast cell were initially purchased from American Type Culture Collection (ATCC, Manassas, VA, USA). RPMI-1640 media, DMEM and FBS, were provided by Gibco Company. The cells were maintained in DMEM or RPMI-1640, supplemented with 10% FBS, 100 IU/mL penicillin and […] streptomycin, and at 37 °C in a humidified atmosphere containing 5% CO2.
(§3) The experiment was carried out according to the method of reference.

AGS gastric cancer cell = test: MTT cell growth inhibition assay, AGS gastric cancer cells; type: cell-based; conditions: Homo sapiens, mean ± SD of three experiments
Text: as §1, §2, §3

MCF-7 breast cancer cell = test: MTT cell growth inhibition assay, MCF-7 breast cancer cells; type: cell-based; conditions: Homo sapiens, MCF7, mean ± SD of three experiments
Text: as §1, §2, §3

[2] = system: BEL-7402 liver cancer cell; test: MTT cell growth inhibition assay, BEL-7402 liver cancer cells; type: cell-based; conditions: Homo sapiens, mean ± SD of three experiments, read-out: IC50 BEL-7402 Hepatoma Cells
Text: as §1, §2, §3

[3] = system: HCT-116 colorectal cancer cell; test: MTT cell growth inhibition assay, HCT-116 colorectal cancer cells; type: cell-based, human; conditions: Homo sapiens, HCT-116; MTT; mean ± SD of three experiments
Text: as §1, §2, §3

[4] = Aqueous solubility in 0.01 M PBS, high throughput UV method; type: physicochemical; conditions: for solubility thermodynamic at 1.5 h: aqueous phosphate buffer, aqueous buffer, sodium phosphate buffer 0.01 M, pH 7.4, 22 ± 2 °C, mean ± SD
Text: as §1
The aqueous solubility was determined as a previously reported procedure. Put simply, a certain amount of powdered compound was placed in a 2 mL centrifuge tube and mixed with an appropriate volume of aqueous phosphate buffer (10 mM, pH 7.4) to make the whole system supersaturated. The mixtures were sonicated (KQ5200DE numerical control ultrasonic cleaner, Kunshan Ultrasonic Instrument Co., Ltd., SuZhou, China) for 20 min. After sonication, the mixture was allowed to equilibrate at RT (22 ± 2 °C) for 1.5 h with vortex shaking (1200 rpm). Then centrifuged at 3000 rpm for 15 min (1-14k, sigma, Darmstadt, Germany), the supernatant was filtered with a 0.22 µM filter membrane. And then, take 150 µL of filtrate and add it to 96-well UV plate with triplicate. Draw 150 μL of blank solution was added into plate as blank control. The 96-well UV plate prepared above was read on a Synergy HTX Multifunctional Microplate Reader (BioTek, Vermont, USA) at 294 nm. The absorbance of the sample was corrected according to the UV response of the sample and blank solution, and the corrected UV response values were used for solubility calculations by bringing into the standard curve of the compound. […]
1.5. Solubility Assessment
The aqueous solubility was determined as previously reported using the high throughput solubility screens procedure published by Bruno Bard et al [9. 10]. Put simply, a certain amount of powdered compound was placed in a 2 ml centrifuge tube and mixed with an appropriate volume of aqueous phosphate buffer (0.01 M, pH 7.4) to make the whole system supersaturated. The mixtures were sonicated (KQ5200DE numerical control ultrasonic cleaner, Kunshan Ultrasonic Instrument Co., Ltd., China) for 20 min. After sonication, the mixture was allowed to equilibrate at room temperature (22 ± 2°C) for 1.5 h with vortex shaking (1200 rpm). Then the centrifuge tube was put into the centrifuge (1-14k, sigma, Germany), centrifuged with 3000 rpm for 15 minutes, 0.22 µM filter membrane filtration supernatant, then take 150 µl filtrate and add it to 96-well UV plate, with three well for each compound. Draw 150 μL blank solution were added into 96 well-plate as blank control. The 96-well UV […]
plate prepared above was read on a SynergyHTX Multifunctional microplate reader (BioTek, USA) at 338 nm (compounds 12a-12d and 15-20) or 370 nm (compounds 9a-d). The absorbance of the sample was corrected according to the UV response of the sample and blank solution, and the corrected UV responses value were used for solubility calculations by bring into the standard curve of the compound. […]

L-02 normal liver cell = test: MTT cell growth inhibition assay, L-02 normal liver cells; type: cell-based; conditions: Homo sapiens, mean ± SD of three experiments
Text: as §1, §2, §3

| SMILES | IC50 [1] [µM] | IC50 (AGS gastric cancer cell) [µM] | IC50 (MCF-7 breast cancer cell) [µM] | IC50 [2] [µM] | IC50 [3] [µM] | solubility thermodynamic at 1.5 h [4] [µg/mL] | IC50 (L-02 normal liver cell) [µM] | Increase of aqueous solubility compared with 9a ([4]; 0.01 M PBS, ratio to 9a) | melting point [°C] | Water solubility (in words) ([4]; Figure 1) |
| --- | --- | --- | --- | --- | --- | --- | --- | --- | --- | --- |
| CCN1CCN(CC(=O)Nc2ccc(/C=C(\C#N)c3ccc(OC)c(OC)c3)cc2)CC1 [12c2] | 29.7 ± 4.56 | 48.8 ± 2.44 | 31.1 ± 4.38 | 10.1 ± 2.18 | 21.6 ± 2.87 | 85.1 ± 13.2 | 22.1 ± 2.64 |  |  |  |
| COc1cc(/C(C#N)=C/c2ccc(NC(=O)CN3CCN(CCOCCO)CC3)cc2)cc(OC)c1OC [compound 16] | 18.9 ± 2.95 | 14.8 ± 3.37 | 31.2 ± 4.73 | 14.4 ± 2.38 | 12.6 ± 1.74 | 2500 ± 266 | 23.4 ± 3.61 | more than 231 times |  |  |
| COc1ccc(/C(C#N)=C/c2ccc(NC(=O)CN3CCN(C)CC3)cc2)cc1OC [12c1] | > 100 | 29.1 ± 1.98 | 33.9 ± 2.22 | 8.95 ± 1.37 | 4.4 ± 0.79 | 124 ± 8.7 | 23.5 ± 3.87 |  |  |  |
| COc1cc(/C(C#N)=C/c2ccc(NC(=O)CN3CCOCC3)cc2)cc(OC)c1OC [12a5] | > 100 | 29.1 ± 1.98 | 48.3 ± 5.41 | 6.74 ± 1.97 | 6.87 ± 1.04 | 15 ± 2.6 | 40.7 ± 5.18 |  |  |  |
| COc1cc(/C(C#N)=C/c2ccc(NC(=O)CN3CCN(C)CC3)cc2C)cc(OC)c1OC [12b1] | 15.2 ± 0.66 | 15.6 ± 0.73 | 22.5 ± 3.6 | 6.62 ± 2.09 | 5.25 ± 1.6 | 104 ± 19.8 | 20.3 ± 1.08 |  |  |  |
| COc1ccc(/C(C#N)=C/c2ccc(N)cc2)cc1OC [9c] | > 100 | 19.5 ± 3.61 | 62.1 ± 8.12 | 3.91 ± 0.8 | 4.05 ± 0.72 | 4.5 ± 0.6 | 15.7 ± 1.79 |  |  |  |
| COc1cc(/C(C#N)=C/c2ccc(NC(=O)CN3CCN(CCOCCO)CC3)cc2)cc(OC)c1OC (as salt: hydrochloride) [compound 16] |  |  |  |  |  |  |  |  | 240 to 243 |  |
| COc1cc(/C(C#N)=C/c2ccc(NC(=O)CN3CCN[C@@H](C)C3)cc2)cc(OC)c1OC [compound 17] | 17.4 ± 3.56 | 22.6 ± 1.45 | 15.6 ± 1.87 | 15 ± 2.32 | 10.3 ± 1.07 | 504 ± 117 | 28.2 ± 5.16 |  |  |  |
| COc1cc(/C(C#N)=C/c2ccc(NC(=O)CN3CCNC(C)C3)cc2)cc(OC)c1OC.Cl (stereo not shown) [compound 18] | 14.1 ± 3.71 | 11.5 ± 2.32 | 12.8 ± 2.96 | 4.16 ± 0.97 | 9.73 ± 0.9 | 1050 ± 67.3 | 28.4 ± 4.52 |  |  |  |
| COc1cc(/C(C#N)=C/c2ccc(NC(=O)CN3CCCC3)cc2)cc(OC)c1OC [12a3] | 16.9 ± 1.24 | 17.9 ± 1.75 | 12.6 ± 0.91 | 4.63 ± 0.89 | 2.56 ± 0.58 | 67.4 ± 2.9 | 11 ± 0.82 |  |  |  |
| CCN1CCN(CC(=O)Nc2ccc(/C=C(\C#N)c3cc(OC)c(OC)c(OC)c3)cc2)CC1 [12a2] | 25.8 ± 3.73 | 11.9 ± 2.62 | 14.9 ± 1.32 | 5.1 ± 0.37 | 5.37 ± 0.03 | 26940 ± 78.8 | 16.6 ± 1.14 |  |  |  |
| COc1cc(/C(C#N)=C/c2ccc(NC(=O)CN3CCN(C(C)C)CC3)cc2)cc(OC)c1OC.Cl [compound 15] | 21 ± 4.73 | 15.3 ± 3.02 | 12.2 ± 0.93 | 14.7 ± 1.09 | 8.32 ± 0.3 | 8620 ± 525 | 22.6 ± 1.36 |  |  |  |
| COc1cc(/C(C#N)=C/c2ccc(NC(=O)CN3CCN[C@@H](C)C3)cc2)cc(OC)c1OC (as salt: hydrochloride) [compound 17] |  |  |  |  |  |  |  |  | 196 to 200 |  |
| COc1cc(/C(C#N)=C/c2ccc(C)cc2)cc(OC)c1OC [compound 2, reference compound] |  |  |  |  | 0.61 ± 0.16 | 4 |  |  |  | Poor water solubility |
| CCN1CCN(CC(=O)Nc2ccc(/C=C(\C#N)c3ccc(OC)c(OC)c3)c(C)c2)CC1 [12d2] | 38.4 ± 4.48 | 15.3 ± 3.86 | 28.7 ± 3.14 | 21.3 ± 0.71 | 24 ± 2.46 | 85.1 ± 13.2 | 25.8 ± 2.56 |  |  |  |
| COc1ccc(/C(C#N)=C/c2ccc(N)cc2C)cc1OC [9d, (Z)-3-(4-Amino-2-methylphenyl)-2-(3,4-dimethoxyphenyl)acrylonitrile monohydrochloride] | > 100 | 16.4 ± 0.42 | > 100 | 9.72 ± 0.9 | 5.86 ± 0.77 | 1.7 ± 0.2 | 62.1 ± 10.6 |  |  |  |
| CCN(CC)CC(=O)Nc1ccc(/C=C(\C#N)c2cc(OC)c(OC)c(OC)c2)cc1 [12a4] | 24.8 ± 4.44 | 12.6 ± 1.79 | 13.3 ± 2.59 | 3.81 ± 0.43 | 5.64 ± 0.15 | 15.5 ± 2.3 | 69.4 ± 7.3 |  |  |  |
| COc1ccc(/C(C#N)=C/c2ccc(NC(=O)CN3CCN(C)CC3)cc2C)cc1OC [12d1] | 54.5 ± 13.2 | 40 ± 3.81 | 33.4 ± 0.84 | 9.53 ± 0.93 | 6.67 ± 2.38 | 124 ± 8.7 | 42.4 ± 1.91 |  |  |  |
| CCN1CCN(CC(=O)Nc2ccc(/C=C(\C#N)c3cc(OC)c(OC)c(OC)c3)c(C)c2)CC1 [12b2] | 20.2 ± 2.4 | 15 ± 2.32 | 19.8 ± 3.16 | 7.42 ± 1.76 | 6.68 ± 1.1 | 253 ± 30.7 | 22.1 ± 2.05 |  |  |  |
